# Experimental data from US11779575B2, “Use of Wnt inhibitor Wnt-C59 in preparation of drug for treating SCN5A mutation-induced dilated cardiomyopathy” (ZHONGSHAN HOSPITAL, FUDAN UNIVERSITY, priority 2020, dated 2023).
# Experiments:
# [1] = system: SCN5A heterozygous mutant mice (KI) with galactose aging and adriamycin-induced DCM; assay: Evaluation on mouse cardiac function by echocardiography in aging and adriamycin-induced DCM model; format: in vivo; conditions: KI+Wnt-C59 group vs KI group, intragastric 1 mg/kg.d for 2 weeks
# Method: (§1) SPF-grade male C57BL/6 mice (purchased from Shanghai Jiesijie Experimental Animal Co., Ltd.) and SCN5A heterozygous mutant mice (aging 8 to 10 weeks and weighing 20 g to 25 g) were selected and intraperitoneally injected with d-galactose (500 mg/kg. d, sigma G5388) continuously for 8 weeks to construct aging models. Then the mice were intraperitoneally injected with adriamycin (4 intraperitoneal injections, total 10 mg/kg, Sangon A603456) to construct DCM models. After the models were constructed, cardiomyocytes were isolated from mice in each of the KI group and the WT group. The experimental scheme was approved by the Animal Management and Ethics Committee of Fudan University.
# After the ultrasonic test, there were 3 groups for study: WT group, KI group, and KI+Wnt-C59 group. Adriamycin was used for molding, and at the same time, the KI+Wnt-C59 group was intragastrically administered with Wnt-C59 (1 mg/kg.d, MCE HY-15659) every day, and the WT and KI groups were intragastrically administered with an equal volume of sterile normal saline as a control. […] The body weight was measured and recorded for mice in each group every day.
# The echocardiogram was measured 2 weeks after the administration, with a probe frequency of 30 MHz. Specifically, the mice were anesthetized with isoflurane, and an M-mode image was recorded when a heart rate of the mice was maintained at 450 to 500 beats/min. […]
# [2] = system: SCN5A heterozygous mutant mice (KI) with galactose aging and adriamycin-induced DCM; assay: Heart size comparison after 2 weeks of drug intervention; format: in vivo; conditions: KI+Wnt-C59 group vs KI group; intragastric 1 mg/kg.d for 2 weeks
# Method: as §1
# After the ultrasonic test, there were 3 groups for study: WT group, KI group, and KI+Wnt-C59 group. Adriamycin was used for molding, and at the same time, the KI+Wnt-C59 group was intragastrically administered with Wnt-C59 (1 mg/kg.d, MCE HY-15659) every day, and the WT and KI groups were intragastrically administered with an equal volume of sterile normal saline as a control. Mice in each group received normal diet and water, and the administration was conducted continuously for 2 weeks. The body weight was measured and recorded for mice in each group every day.
# After 2 weeks of drug intervention, the mice were sacrificed and hearts thereof were collected for heart size comparison among the 3 groups.
# 46 types of tumor cells = conditions: cited from earlier work
structure (smiles),measurement,setting,value
Cc1cc(-c2ccc(CC(=O)Nc3ccc(-c4cccnc4)cc3)cc2)ccn1 [Wnt-C59],"cardiac function (left ventricular ejection fraction, LVEF)",[1],significantly improved
same,heart size,[2],significantly smaller
same,proliferation of tumor cells,46 types of tumor cells,significantly inhibit
